Counter-ions that a name gives are not always drawn.
Key:
[1] = test system: HeLa cells; assay: Fluorescence imaging of platinum in live HeLa cells; type: cell-based; details: 1 μM APE, 200 μM TFPP, 1 mM K2PtCl4, 20 min
Description: We then applied this method for cellular imaging. HeLa cells were seeded in 35-mm dishes and were incubated overnight in an incubator (37° C., 5% CO2 atmosphere) in DMEM supplemented with 10% bovine calf serum and 1% penicillin/streptomycin. Cells were loaded with APE and TFPP to a final concentration of 1 μM and 200 μM, respectively, in 1% DMSO in DMEM for 20 min. Following this, cells were washed twice with ˜2 mL HBSS. HBSS was used as the imaging medium. Brightfield images were taken, as well as the initial fluorescence image. Immediately after taking the first fluorescence image, a solution of K2PtCl4 in PBS was added to a final concentration of 1 mM.
Cellular images were taken using an Olympus IX81 microscope with a 10× objective. Brightfield images were taken using a 3 ms exposure. Fluorescence images were taken as a time series, with an image taken every 30 s for 20 min, using an 850 ms exposure. Images were processed using ImageJ software; background fluorescence was removed from the fluorescence images using a rolling ball radius of 50.0 pixels.

[2] = Reactivity of strongly-ligated platinum drugs with APE and TFPP; details: 10 μM drug, 45° C., 1 h
Description: We incubated carboplatin and oxaliplatin with APE and TFPP. […] Carboplatin and oxaliplatin were dissolved in DMSO. The solutions were diluted to a concentration of 100 μM in DMSO. 100 μM platinum drugs in DMSO or water (20 μL) were transferred to the wells of a black 96-well plate. The working solution was prepared by the addition of 1.2 M phosphate pH 7.8 buffer (17.60 mL), DMSO (1.43 mL), 800 μM APE in DMSO (550 μL), and 40 mM TFPP in 250 ppm BHT in DMSO (220 μL). The working solution (180 μL) was then transferred to the wells and the initial fluorescence was measured. The plate was then covered and allowed to incubate in a 45° C. oven for 1 h before the fluorescence was measured again.

[3] = Reactivity of platinum drugs after pre-incubation with LiCl or NaCl; details: 10 μM drug, 50 mM LiCl or NaCl, 20 μM APE, 400 μM TFPP, 25° C., 100 min
Description: We pre-incubated the drugs with either LiCl or NaCl before adding APE and TFPP.0 or 100 μM cisplatin, carboplatin, or oxaliplatin in DMSO (100 μL) were added to centrifuge tubes. To these tubes, 0 or 1 M LiCl or NaCl in water (100 μL) was added. The solutions were then allowed to incubate at room temperature for 4 h. The working solution was made by the addition of 1.2 M phosphate pH 7.8 buffer (8.86 mL), DMSO (721 μL), 800 μM APE in DMSO (278 μL), and 20 mM TFPP in 250 ppm BHT in DMSO (111 μL). The working solution (180 μL) was then transferred to the wells of a black 96-well plate. The platinum drugs (20 μL) were then transferred to the wells and the fluorescence was measured every 5 min for 100 min.

[4] = Depropargylation of PPE with various metals and ligands (combinatorial screen); details: Cu^+ and Cu^2+ in the presence of ligand, 1.2 M pH 7.0 phosphate buffer/DMSO
Description: All fluorescence measurements were obtained using a Modulus II Microplate Multimode Reader. Fluorescence was measured after exciting samples with 490 nm light and emission was measured between 510-570 nm. All fluorescence measurements were obtained at room temperature. Metals and ligands were combinatorially screened in the presence of Propargyl Pittsburgh Green ether (PPE) to determine which metals and ligands facilitated the depropargylation reaction. Solid AgNO3 and Sr(NO3)2 were dissolved in 5% HNO3 (TraceMetal Grade) to a final concentration of 10 mM. AuCl3, CdCl2, CeCl3, COCl2, CuCl, CuCl2, […]7, FeSO4, FeCl3, HgCl2, MgCl2, KMnO4 NiCl2, Pb(OAc)4, Rh(OAc)2, RhCl3, RuCl3, and ZnCl2 were dissolved in 3% HCl (TraceMetal Grade) to a final concentration of 10 mM. Wilkinson's catalyst, as a source of Rh(I), was dissolved in DMSO to a final concentration of 5 mM. RuCl2(p-cymene) dimer was dissolved in DMSO to a final concentration of 5 mM (10 mM with respect to the monomer). Standard solutions of 1000 ppm Pt^2+ in 3% HCl and 1000 ppm Pd^2+ in 5% HNO3 were used. […] A mixture containing 1.2 M pH 7.0 phosphate buffer (177.2 mL), DMSO (19.42 mL), and 8.0 mM PPE (556 μL) was separated into 37 aliquots. […] These solutions containing the probe and ligand (180 μL), termed working solutions, were transferred to a black 96-well plate. The metal solutions were diluted to 10 μM using ultrapure water as the diluent. […] To analyze the data, each working solution was normalized, with the no metal sample normalized to 1.

[5] = Deallylation of APE with various metals and ligands (combinatorial screen); details: for facilitation of the deallylation of APE: ligand screen with APE
Description: In separate vials, 20-30 mg of each ligand was dissolved in DMSO containing 250 ppm butylated hydroxyl toluene (BHT) to a final concentration of 20 mM ligand. Working solutions containing the ligands were prepared by mixing 1.23 M pH 7 phosphate buffer (177.2 mL), DMSO (19.424 mL), and 8.0 mM APE in DMSO (556 μL). Aliquots of this mixture (4.944 mL) were placed into 15 mL conical tubes and 20 mM ligands and 250 ppm BHT in DMSO (55.5 μL) were added. […] Metals used in the experiments included AgNO3, AuCl3, CdCl2.2.5H2O, CeCsl3.3H2O, CoCl2.6H2O, […]7, CuCl, CuCl2.2H2O, FeSO4, FeCl3, HgCl2, MgCl2.6H2O, K2MnO4, NiCl2, Pb(OAc)2, RhCl(PPh3)3, Rh(Oac)2 dimer, […] (45.5% Rh), dichloro(p-cymene)ruthenium(II), RuCl3, Sr(NO3)2, and ZnCl2. In separate vials, 10 mM metal solutions were prepared by mixing 5-20 mg of the listed metals with dilute acid; all metals were dissolved in 3% HCl (TraceMetal Grade), with the exception of AgNO3, Sr(NO3)3, RhCl(PPh3)3, and dichloro(p-cymene)ruthenium(II). AgNO3 and Sr(NO3)3 were dissolved in 5% HNO3 (TraceMetal Grade); RhCl(PPh3)3 and dichloro(p-cymene)ruthenium(II) were dissolved in DMSO and the working solutions were adjusted to account for the solvent. The metal solutions were then diluted to 100 μM in 3% HCl or 5% HNO3 (TraceMetal Grade) or DMSO. […] For Pd, the 9.4 mM standard (21 μL) was added to 5% HNO3 (1.98 mL, TraceMetal Grade). For Pt, the 5.1 mM standard (39 μL) was added to 3% HCl (1.96 mL, TraceMetal Grade). To perform the assay, 10 μM metal solutions (20 μL) were added to the prepared working solutions (180 μL). The fluorescence was measured immediately and again after allowing the reaction to proceed for 1 h and 2 h at 25° C.

[6] = Selectivity of optimized APE/TFPP method for platinum over palladium; details: optimized salts, pH and TFPP concentration; 10 μM metals, 20 μM APE, 200 μM TFPP, pH 7.8
Description: FIG. 21: Relative reactivities of metals (10 μM) to APE with TFPP. 20 μM APE, 200 μM TFPP, pH 7.8, 25° C., 10 min, n=3.
Increased temperatures accelerated the deallylation, opening an avenue for even lower detection limits if necessary.

[7] = Distribution of copper between water and CHCl3 in the presence of DMAPPP; type: physicochemical; details: pH 7 buffer / CHCl3 biphasic system, DMAPPP present vs absent
Description: We questioned whether copper ions would be excreted from cells when bound to DMAPPP. As a model system, CuSO4 was suspended in a biphasic system (pH 7 buffer and CHCl3) in the presence or absence of DMAPPP. Three suspensions were prepared from these: 10 mM DMAPPP in CHCl3 (1.0 mL) and 5 mM CuSO4 in 1 mM phosphate pH 7.0 buffer (1.0 mL), CHCl3 (1.0 mL) and 5 mM CuSO4 in 1 mM phosphate pH 7.0 buffer (1.0 mL), and 10 mM DMAPPP in CHCl3 (1.0 mL) and 1 mM phosphate pH 7.0 buffer (1.0 mL). The suspensions were vortexed to ensure proper partitioning of the CuSO4 and DMAPPP. Aliquots of the aqueous and organic layers of each suspension (100 μL each) were then taken and evaporated. The residue following evaporation was resuspended in HBSS (100 μL).
The working solution was prepared by the addition of 50 mM pH 8.5 borate buffer (2.96 mL), EtOH (500 μL), 800 μM PPE in EtOH (100 μL), and 10 mM DMAPPP in DMSO (40 μL). The working solution (180 μL) was transferred to the wells of a black 96-well plate. The resuspended samples (20 μL) were then added to the wells and the fluorescence was measured.

[8] = Detection of platinum in different oxidation states (APE/TFPP); details: APE and TFPP, 25° C.
Description: To determine whether our method depends on the oxidation state of platinum, we incubated the solution of APE and TFPP with a platinum(II) standard, K2PtCl4, K2PtCl6, or cisplatin for 10 min. Cisplatin (6.1 mg; 20 μmol) was dissolved in DMSO and diluted to a concentration of 10 μM. K2PtCl4 (5.6 mg; 13 μmol) and K2PtCl6 (6.8 mg; 14 μmol) were dissolved in water to a concentration of 10 μM. The Pt standard was diluted with ultrapure water to a concentration of 10 μM. The working solution was prepared by adding 1.2 M pH 7 phosphate buffer (8.86 mL), 800 μM APE in DMSO (278 μL), 20 mM TFPP and 250 ppm BHT in DMSO (111 μL), and DMSO (721 μL) in a 15-mL conical tube. The working solution (180 μL) and the Pt solutions (20 μL) were transferred in this order to black round-bottom 96-well plates. The reaction mixture was incubated at 25° C. for 1 h before the fluorescence was measured and reported. Average values and standard deviations are shown in FIG. 23 and “no Pt” is normalized to 1.

[9] = Pt^2+ and APE in the presence of ligand

allyl Pittsburgh Green ether [APE]
increase of fluorescence intensity in cells [1]: 1.5 fold

N.N.O=C([O-])C1(C(=O)[O-])CCC1.[Pt+2] [carboplatin]
reaction with APE and TFPP compared to no platinum [2]: little reaction | effect of pre-incubation with LiCl or NaCl on detection [3]: increased fluorescence

O=S(=O)([O-])c1cccc(P(c2ccccc2)c2ccccc2)c1.[Na+] [Compound 2, 3-(diphenylphosphino)bezenesulfonic acid sodium salt]
fluorescence signals (depropargylation of PPE) [4]: significantly increased the fluorescence signals

O=S(=O)(O)c1cccc(P(c2cc(C(F)(F)F)cc(C(F)(F)F)c2)c2cccc(S(=O)(=O)O)c2)c1 [Compound 12, bis(3-sulfonatophenyl)(3,5-di-trifluoromethylphenyl)phosphine disodium salt]
facilitation of the deallylation of APE [5]: facilitated the deallylation

Fc1ccc(P(c2ccc(F)cc2)c2ccc(F)cc2)cc1 [Compound 13, tris(4-fluorophenyl)phosphine]
selectivity for platinum over palladium [6]: 14 times | rate relative to previously reported Pt-Ph3P catalysis ([5]; 200 μM TFPP): 4 times | fluorescence signal relative to background signal [5, 9]: 40 fold | fluorescence signal relative to the corresponding signal from Pd^2+ [5, 9]: 10 fold | facilitation of the deallylation of APE [5]: facilitated the deallylation

CN(C)c1ccc(P(c2ccccc2)c2ccccc2)cc1 [Compound 9, 4-(dimethylamino)phenyl-diphenylphosphine]
copper concentration in the organic phase [7]: did not increase | fluorescence signals (depropargylation of PPE) [4]: greatly increased the fluorescence signals

c1ccc(P(c2ccccc2)c2ccccc2)cc1 [Compound 34, triphenylphosphine]
fluorescence signals (depropargylation of PPE) [4]: significantly increased the fluorescence signals

FC(F)(F)c1ccc(P(c2ccc(C(F)(F)F)cc2)c2ccc(C(F)(F)F)cc2)cc1 [Compound 19, tris(4-trifluoromethylphenyl)phosphine]
facilitation of the deallylation of APE [5]: did not facilitate the deallylation

Cc1ccc(P(c2ccc(C)cc2)c2ccc(C)cc2)cc1 [Compound 18, tri-p-tolylphosphine]
fluorescence signals (depropargylation of PPE) [4]: significantly increased the fluorescence signals | facilitation of the deallylation of APE [5]: facilitated the deallylation

O=C1[O][Pt]2([NH][C@@H]3CCCC[C@H]3[NH]2)[O]C1=O [oxaliplatin]
reaction with APE and TFPP compared to no platinum [2]: little reaction | effect of pre-incubation with LiCl or NaCl on detection [3]: did not improve the detection

N.N.[Cl][Pt][Cl] [cisplatin]
reactivity of platinum species (fluorescence signal) [8]: exhibited reactivity, although it was lower than the inorganic species | effect of pre-incubation with LiCl or NaCl on detection [3]: did not improve the detection

COc1ccc(P(c2ccc(OC)cc2)c2ccc(OC)cc2)cc1 [Compound 15, tris(4-methoxyphenyl)phosphine]
fluorescence signals (depropargylation of PPE) [4]: significantly increased the fluorescence signals | facilitation of the deallylation of APE [5]: did not facilitate the deallylation
